The record followed here is ChEMBL document CHEMBL3991601, “The target landscape of clinical kinase drugs” (Science, 2017).

SMILES strings stand for the structures. Activity calls are given as the source filed them. Rule as the data show it, for most assays here: actives have a measured Kd and inactives only a lower limit.

The target in test [1] is T1, Serine/threonine-protein kinase TAO3 (Homo sapiens, UniProt Q9H2K8).
T1 sequence (Q9H2K8 whole entry): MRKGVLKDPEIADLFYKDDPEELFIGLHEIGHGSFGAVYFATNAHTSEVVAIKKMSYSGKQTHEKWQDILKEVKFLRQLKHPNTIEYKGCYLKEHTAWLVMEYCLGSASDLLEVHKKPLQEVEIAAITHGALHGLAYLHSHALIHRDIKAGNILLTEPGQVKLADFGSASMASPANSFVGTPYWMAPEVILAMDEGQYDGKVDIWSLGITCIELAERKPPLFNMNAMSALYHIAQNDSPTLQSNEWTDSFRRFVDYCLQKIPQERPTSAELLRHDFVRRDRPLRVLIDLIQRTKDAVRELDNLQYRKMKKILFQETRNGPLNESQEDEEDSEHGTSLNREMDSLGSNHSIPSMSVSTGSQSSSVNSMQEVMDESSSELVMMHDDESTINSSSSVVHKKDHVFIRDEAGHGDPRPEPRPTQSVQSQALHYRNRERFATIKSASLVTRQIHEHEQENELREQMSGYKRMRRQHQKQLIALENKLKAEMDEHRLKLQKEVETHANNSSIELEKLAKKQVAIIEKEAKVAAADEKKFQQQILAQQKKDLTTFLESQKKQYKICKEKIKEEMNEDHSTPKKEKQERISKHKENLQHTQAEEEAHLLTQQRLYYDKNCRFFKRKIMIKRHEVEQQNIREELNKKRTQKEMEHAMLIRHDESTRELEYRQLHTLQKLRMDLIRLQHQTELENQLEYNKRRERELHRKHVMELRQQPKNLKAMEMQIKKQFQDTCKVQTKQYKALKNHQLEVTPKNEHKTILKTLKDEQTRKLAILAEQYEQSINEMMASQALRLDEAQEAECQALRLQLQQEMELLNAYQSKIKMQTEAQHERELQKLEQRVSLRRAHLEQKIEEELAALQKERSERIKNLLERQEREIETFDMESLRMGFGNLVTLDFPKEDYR

Another test has as its target Obg-like ATPase 1 (Homo sapiens, UniProt Q9NTK5).
Test [2] concerns the target TRAF2 and NCK-interacting protein kinase (Homo sapiens, UniProt Q9UKE5).
Test [3] concerns the target T2, Non-receptor tyrosine-protein kinase TNK1 (Homo sapiens, UniProt Q13470).
T2 sequence (Q13470 whole entry): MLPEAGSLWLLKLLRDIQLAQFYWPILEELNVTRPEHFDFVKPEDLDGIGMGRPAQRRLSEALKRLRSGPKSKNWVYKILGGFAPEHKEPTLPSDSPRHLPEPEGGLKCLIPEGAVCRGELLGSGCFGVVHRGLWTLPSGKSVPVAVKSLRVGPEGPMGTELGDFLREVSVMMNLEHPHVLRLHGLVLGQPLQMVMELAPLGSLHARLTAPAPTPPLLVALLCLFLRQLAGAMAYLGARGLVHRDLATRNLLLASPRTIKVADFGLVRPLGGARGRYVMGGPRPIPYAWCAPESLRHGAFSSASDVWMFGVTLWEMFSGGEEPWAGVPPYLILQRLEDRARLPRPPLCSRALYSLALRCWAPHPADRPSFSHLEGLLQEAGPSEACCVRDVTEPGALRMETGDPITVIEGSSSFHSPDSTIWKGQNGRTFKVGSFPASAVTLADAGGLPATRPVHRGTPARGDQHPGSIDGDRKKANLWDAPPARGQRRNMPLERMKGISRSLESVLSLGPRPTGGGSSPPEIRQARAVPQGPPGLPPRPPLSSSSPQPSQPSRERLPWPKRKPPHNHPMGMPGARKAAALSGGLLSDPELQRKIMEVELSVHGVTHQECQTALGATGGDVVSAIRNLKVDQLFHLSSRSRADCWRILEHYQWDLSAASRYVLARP

The target of test [4] is Mitogen-activated protein kinase kinase kinase 1 (Homo sapiens, UniProt Q13233).
Sequence of Mitogen-activated protein kinase kinase kinase 1 (Q13233 whole entry): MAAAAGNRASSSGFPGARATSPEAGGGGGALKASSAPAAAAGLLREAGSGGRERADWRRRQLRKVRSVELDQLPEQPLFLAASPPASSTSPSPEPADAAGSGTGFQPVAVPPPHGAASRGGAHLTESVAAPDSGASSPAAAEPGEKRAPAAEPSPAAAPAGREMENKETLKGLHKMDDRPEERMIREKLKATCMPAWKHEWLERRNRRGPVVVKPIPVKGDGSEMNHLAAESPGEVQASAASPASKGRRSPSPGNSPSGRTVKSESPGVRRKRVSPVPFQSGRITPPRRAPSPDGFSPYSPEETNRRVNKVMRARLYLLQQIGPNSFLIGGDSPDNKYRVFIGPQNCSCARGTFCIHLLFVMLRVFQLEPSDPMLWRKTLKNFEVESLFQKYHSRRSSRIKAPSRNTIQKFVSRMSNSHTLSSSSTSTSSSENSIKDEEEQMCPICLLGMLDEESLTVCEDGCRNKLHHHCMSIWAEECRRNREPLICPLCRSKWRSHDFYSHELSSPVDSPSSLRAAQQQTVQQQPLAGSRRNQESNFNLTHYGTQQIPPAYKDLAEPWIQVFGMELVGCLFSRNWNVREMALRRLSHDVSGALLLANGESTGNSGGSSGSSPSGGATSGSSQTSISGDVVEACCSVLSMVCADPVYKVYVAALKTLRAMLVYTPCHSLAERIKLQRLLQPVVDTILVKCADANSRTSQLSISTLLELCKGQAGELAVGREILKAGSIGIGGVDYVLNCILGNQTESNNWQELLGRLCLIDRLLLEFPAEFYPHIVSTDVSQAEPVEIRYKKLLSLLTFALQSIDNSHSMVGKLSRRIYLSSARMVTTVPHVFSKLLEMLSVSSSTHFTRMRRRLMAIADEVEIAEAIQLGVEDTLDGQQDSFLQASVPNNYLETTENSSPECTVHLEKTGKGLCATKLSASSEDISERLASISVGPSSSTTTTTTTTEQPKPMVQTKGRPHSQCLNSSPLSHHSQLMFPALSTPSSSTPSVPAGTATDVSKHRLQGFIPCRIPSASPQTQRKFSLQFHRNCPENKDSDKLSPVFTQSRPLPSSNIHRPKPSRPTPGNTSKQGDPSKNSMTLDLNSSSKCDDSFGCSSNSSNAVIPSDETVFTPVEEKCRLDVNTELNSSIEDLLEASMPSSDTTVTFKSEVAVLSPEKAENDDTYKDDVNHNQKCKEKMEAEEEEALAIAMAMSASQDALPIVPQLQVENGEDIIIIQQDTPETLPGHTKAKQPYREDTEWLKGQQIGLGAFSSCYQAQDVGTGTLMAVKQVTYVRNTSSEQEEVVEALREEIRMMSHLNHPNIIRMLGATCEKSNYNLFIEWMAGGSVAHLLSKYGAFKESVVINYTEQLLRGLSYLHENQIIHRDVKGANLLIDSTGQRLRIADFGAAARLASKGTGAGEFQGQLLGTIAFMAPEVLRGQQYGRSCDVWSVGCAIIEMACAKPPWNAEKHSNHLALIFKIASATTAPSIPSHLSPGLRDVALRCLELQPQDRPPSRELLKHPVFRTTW
Test [5] has as its target Tyrosine-protein kinase BTK (Homo sapiens, UniProt Q06187).
Test [6] deals with DNA topoisomerase 2-alpha (Homo sapiens, UniProt P11388).
The target in test [7] is Mitogen-activated protein kinase kinase kinase 4 (Homo sapiens, UniProt Q9Y6R4).
Test [8] deals with Rho-associated protein kinase 2 (Homo sapiens, UniProt O75116).
The target in test [9] is T3, Receptor-type tyrosine-protein kinase FLT3 (Homo sapiens, UniProt P36888).
T3 sequence (P36888 whole entry): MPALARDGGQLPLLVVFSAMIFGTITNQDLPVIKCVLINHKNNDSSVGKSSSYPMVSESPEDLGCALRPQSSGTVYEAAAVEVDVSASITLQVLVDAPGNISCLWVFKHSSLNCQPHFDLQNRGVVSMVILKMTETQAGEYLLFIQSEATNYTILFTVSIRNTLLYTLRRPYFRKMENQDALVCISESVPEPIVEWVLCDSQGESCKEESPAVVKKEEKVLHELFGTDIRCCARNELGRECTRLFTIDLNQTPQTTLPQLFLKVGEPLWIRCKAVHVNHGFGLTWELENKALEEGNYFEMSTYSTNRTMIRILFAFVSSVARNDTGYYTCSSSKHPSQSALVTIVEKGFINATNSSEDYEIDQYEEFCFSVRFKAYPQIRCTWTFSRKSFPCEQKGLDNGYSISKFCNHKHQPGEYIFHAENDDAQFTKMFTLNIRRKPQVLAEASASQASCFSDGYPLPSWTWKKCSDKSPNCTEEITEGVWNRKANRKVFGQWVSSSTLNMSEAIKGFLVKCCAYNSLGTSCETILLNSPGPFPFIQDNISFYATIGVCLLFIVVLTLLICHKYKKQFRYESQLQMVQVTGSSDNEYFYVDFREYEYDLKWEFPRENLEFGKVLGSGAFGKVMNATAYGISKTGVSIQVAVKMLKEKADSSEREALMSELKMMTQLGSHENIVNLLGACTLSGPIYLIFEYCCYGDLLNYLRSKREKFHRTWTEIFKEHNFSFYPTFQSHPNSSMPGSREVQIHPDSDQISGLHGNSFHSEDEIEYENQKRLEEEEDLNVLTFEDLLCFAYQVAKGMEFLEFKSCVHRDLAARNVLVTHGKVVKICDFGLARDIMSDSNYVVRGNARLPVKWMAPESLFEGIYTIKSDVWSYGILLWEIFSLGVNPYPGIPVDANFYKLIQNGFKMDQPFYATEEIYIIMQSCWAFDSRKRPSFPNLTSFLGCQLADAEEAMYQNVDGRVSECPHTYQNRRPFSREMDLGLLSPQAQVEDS

For test [10], the target named is Serine/threonine-protein kinase SIK2 (Homo sapiens, UniProt Q9H0K1).
Sequence of Serine/threonine-protein kinase SIK2 (Q9H0K1 whole entry): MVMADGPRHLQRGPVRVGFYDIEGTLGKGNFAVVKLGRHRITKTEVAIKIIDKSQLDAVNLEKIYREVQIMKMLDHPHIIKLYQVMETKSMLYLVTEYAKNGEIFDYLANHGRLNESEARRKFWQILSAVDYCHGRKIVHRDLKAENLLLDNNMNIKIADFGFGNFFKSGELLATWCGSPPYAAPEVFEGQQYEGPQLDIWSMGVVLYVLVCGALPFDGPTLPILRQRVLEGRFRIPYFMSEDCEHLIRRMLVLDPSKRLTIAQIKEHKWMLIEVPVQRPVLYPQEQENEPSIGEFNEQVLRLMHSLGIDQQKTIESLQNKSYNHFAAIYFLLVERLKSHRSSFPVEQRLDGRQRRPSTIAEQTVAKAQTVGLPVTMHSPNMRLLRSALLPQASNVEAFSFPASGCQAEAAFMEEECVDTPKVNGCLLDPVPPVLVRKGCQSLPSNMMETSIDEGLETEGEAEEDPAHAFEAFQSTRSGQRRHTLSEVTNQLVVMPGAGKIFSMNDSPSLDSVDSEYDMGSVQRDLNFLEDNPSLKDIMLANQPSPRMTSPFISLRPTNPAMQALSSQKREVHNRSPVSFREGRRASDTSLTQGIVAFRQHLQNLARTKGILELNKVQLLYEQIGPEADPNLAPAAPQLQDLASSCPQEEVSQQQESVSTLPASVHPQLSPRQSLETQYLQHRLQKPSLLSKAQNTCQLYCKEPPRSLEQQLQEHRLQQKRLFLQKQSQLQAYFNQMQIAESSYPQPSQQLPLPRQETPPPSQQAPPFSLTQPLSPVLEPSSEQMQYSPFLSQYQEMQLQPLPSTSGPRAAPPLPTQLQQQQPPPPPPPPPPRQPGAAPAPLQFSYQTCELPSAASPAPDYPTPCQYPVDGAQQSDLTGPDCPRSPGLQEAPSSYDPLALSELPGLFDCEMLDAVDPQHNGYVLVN

What is called Kd is the constant that tells how readily two partners part at equilibrium.
Also: in the data inactive means no Kd found up to 30 µM.

Sequence of Tyrosine-protein kinase BTK (Q06187 whole entry): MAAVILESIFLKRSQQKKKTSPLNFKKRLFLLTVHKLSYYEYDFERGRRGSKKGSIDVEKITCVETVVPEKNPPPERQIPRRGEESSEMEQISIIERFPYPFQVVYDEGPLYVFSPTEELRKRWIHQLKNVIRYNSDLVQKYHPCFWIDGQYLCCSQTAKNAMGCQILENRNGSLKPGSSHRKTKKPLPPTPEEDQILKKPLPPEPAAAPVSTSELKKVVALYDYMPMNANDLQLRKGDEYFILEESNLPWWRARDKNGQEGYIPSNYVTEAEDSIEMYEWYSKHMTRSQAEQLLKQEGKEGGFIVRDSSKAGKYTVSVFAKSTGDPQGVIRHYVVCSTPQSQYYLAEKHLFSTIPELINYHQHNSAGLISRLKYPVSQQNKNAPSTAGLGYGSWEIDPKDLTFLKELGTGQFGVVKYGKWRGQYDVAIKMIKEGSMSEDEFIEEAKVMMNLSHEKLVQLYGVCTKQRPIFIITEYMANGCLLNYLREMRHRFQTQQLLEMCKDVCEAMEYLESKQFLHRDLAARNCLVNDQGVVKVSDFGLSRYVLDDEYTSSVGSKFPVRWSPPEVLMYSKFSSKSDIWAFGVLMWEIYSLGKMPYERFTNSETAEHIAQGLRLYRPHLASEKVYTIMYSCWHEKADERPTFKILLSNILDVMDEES
Sequence of TRAF2 and NCK-interacting protein kinase (Q9UKE5 whole entry): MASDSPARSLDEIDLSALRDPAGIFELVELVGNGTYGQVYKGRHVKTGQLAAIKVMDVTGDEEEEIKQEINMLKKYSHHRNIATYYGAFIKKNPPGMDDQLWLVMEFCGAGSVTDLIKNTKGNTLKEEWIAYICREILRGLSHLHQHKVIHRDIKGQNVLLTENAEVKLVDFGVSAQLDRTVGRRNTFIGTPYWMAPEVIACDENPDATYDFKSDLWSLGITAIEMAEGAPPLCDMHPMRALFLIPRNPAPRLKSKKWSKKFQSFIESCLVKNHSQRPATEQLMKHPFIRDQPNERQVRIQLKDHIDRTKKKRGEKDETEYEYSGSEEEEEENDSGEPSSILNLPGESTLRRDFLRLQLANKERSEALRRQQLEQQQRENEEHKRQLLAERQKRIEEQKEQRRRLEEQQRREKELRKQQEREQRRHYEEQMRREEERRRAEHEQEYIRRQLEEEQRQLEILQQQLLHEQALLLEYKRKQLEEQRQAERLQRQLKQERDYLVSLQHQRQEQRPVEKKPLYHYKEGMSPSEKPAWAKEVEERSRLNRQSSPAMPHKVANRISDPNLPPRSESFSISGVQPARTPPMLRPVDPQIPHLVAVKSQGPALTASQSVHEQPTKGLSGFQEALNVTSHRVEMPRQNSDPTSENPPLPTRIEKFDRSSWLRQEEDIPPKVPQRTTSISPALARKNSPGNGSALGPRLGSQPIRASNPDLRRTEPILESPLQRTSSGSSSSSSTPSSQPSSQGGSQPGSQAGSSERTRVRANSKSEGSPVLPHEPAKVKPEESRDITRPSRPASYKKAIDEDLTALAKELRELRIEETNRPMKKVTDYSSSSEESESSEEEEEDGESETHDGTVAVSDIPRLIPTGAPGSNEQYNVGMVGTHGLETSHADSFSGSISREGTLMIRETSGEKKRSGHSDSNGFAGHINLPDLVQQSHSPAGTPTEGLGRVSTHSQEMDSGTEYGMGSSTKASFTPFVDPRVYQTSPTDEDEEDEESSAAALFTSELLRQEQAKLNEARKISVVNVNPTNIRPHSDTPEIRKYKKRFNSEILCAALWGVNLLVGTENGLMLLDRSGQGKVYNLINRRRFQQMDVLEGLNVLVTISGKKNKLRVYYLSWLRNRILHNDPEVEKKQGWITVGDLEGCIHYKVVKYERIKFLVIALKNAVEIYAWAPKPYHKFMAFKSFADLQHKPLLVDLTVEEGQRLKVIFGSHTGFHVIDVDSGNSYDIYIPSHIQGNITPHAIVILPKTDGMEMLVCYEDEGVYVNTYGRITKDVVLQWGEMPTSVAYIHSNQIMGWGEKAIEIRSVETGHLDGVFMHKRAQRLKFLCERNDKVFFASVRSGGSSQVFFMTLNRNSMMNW
Sequence of Obg-like ATPase 1 (Q9NTK5 whole entry, looked up): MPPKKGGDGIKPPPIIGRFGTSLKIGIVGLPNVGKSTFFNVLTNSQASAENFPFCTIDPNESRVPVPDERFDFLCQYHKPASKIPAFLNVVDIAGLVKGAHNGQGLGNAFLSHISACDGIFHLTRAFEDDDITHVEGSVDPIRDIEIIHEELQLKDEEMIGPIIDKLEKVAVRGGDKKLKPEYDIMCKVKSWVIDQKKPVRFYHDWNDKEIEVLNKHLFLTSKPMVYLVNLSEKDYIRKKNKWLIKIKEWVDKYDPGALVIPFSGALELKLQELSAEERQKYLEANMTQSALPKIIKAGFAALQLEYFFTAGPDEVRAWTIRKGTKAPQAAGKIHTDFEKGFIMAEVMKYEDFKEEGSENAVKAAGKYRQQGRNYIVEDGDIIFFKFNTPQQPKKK

`O=C(Cc1ccc(-c2ccc(OCCN3CCOCC3)cc2)cn1)NCc1ccccc1` [TIRBANIBULIN]: the Kd (in [1]; at Obg-like ATPase 1; in test [2]; in test [3]; in test [4]; in test [5]) was > 30 µM (inactive) in each case. Besides, the Kd in test [6], in test [7], in test [8], in [9] and in test [10] was > 30 µM (inactive) throughout.
In the case of `O=C1NC(=O)[C@@H](c2cn3c4c(cccc24)CCC3)[C@@H]1c1c[nH]c2ccccc12` [TIVANTINIB], the Kd (in [1]; at Obg-like ATPase 1; in [2]; in test [3]; in test [4]; in test [5]) was > 30 µM (inactive) in each case. The Kd in test [6], in [7], in test [8], in [9] and in test [10] was > 30 µM (inactive) in each case.
Turning to `C[C@@H](NC(=O)c1ncnc(N)c1Cl)c1ncc(C(=O)Nc2cc(C(F)(F)F)c(Cl)cn2)s1` [TOVORAFENIB], the Kd in test [1] is > 30 µM (inactive); on Obg-like ATPase 1, > 30 µM (inactive); in test [2], > 30 µM (inactive); in test [3] it was > 30 µM (inactive); in test [4] it was 2.09 µM (active); in test [5], > 30 µM (inactive). Moreover, the Kd in test [6], in test [7], in test [8], in test [9] and in test [10] was > 30 µM (inactive) throughout.
For `Cc1cc(Nc2ncnc3ccc(NC4=NC(C)(C)CO4)cc23)ccc1Oc1ccn2ncnc2c1` [TUCATINIB], the Kd (in [1]; at Obg-like ATPase 1; in test [2]; in test [3]; in [4]; in [5]) was > 30 µM (inactive) each time. Also, the Kd in test [6], in test [7], in test [8], in test [9] and in [10] was > 30 µM (inactive) in each case.
On to `Cn1ncc(Cl)c1-c1cc(C(=O)N[C@H](CN)Cc2ccc(F)c(F)c2)oc1Cl` [UPROSERTIB], for which the Kd (in [1]; on Obg-like ATPase 1; in test [2]; in [3]; in [4]; in test [5]) was > 30 µM (inactive) throughout. Besides, the Kd in test [6] is > 30 µM (inactive); in test [7], > 30 µM (inactive); in test [8] it was 2.28 µM (active); in test [9], > 30 µM (inactive); in [10], > 30 µM (inactive).
